The values that follow come from patent publication US6407083B1, “Uses of novel organoselenium compounds with pro-oxidant activity” (Oxis International, Inc., priority 1996, dated 2002).

The test system of data set [1] is NADPH in the presence of glutathione (GSH) and glutathione disulfide reductase. The experiment in a line: Glutathione oxidase activity (consumption of NADPH in the presence of GSH and glutathione disulfide reductase). Format: biochemical. Particulars: pH 7.3, 37° C. How it is done:
To 1.5 ml of 50 mM HEPES buffer, pH 7.3, containing 2.47 mM of reduced glutathione (GSH), 0.32 mM of nicotinamide adenine dinucleotide phosphate (NADPH), and 1.23 units/ml of glutathione disulfide reductase (GR), at 37° C., are added, in the following order:
320 μl of 50 mM HEPES buffer, pH 7.3, containing 0.1 mM of DTPA, pre-equilibrated at 37° C.
30 μl of a 5 mM ethanolic mother-solution of the compound under test or 30 μl of absolute ethanol (blank). Each compound is tested at a final concentration of 81 μM.
The final reaction volume is 1850 μl.
The glutathione oxidase activity is assayed at 37° C. by measuring the reduction in absorbance at 340 nm over 5 minutes. The said initial enzymatic rate or activity is proportional to the slope of the plot of absorbance against time.
The catalytic activity for oxygen reduction in the compounds under test corresponds to the rate of consumption of NADPH.
Furthermore, the effects of superoxide dismutase (SOD), catalase, iodoacetamide (IAA) and Se-GPx on the glutathione oxidase activity of the tested compounds have been studied.
the necessary and sufficient quantity, variable according to the case, of 50 mM HEPES, pH 7.3, containing 0.1 mM of DTPA, pre-equilibrated at 37° C.; the final reaction volume being 1850 μl.
either 100 μl of a solution of 1850 units/ml of SOD in water of ultrapure quality,
or 100 μl of a solution of 1850 units/ml of catalase in water of ultrapure quality and 100 μl of a solution of 1850 units/ml of SOD in water of ultrapure quality,
or 150 μl of a 6.2 mM solution of iodoacetamide in 50 mM HEPES buffer, pH 7.3, containing 0.1 mM DTPA,
or 100 μl of a solution of 10 units/ml of glutathione peroxidase Se-GPx in 50 mM HEPES buffer, pH 7.3, containing 0.1 mM of DTPA,
or 100 μl of a solution of 1850 units/ml of SOD in water of ultrapure quality, and 100 μl of a solution of 10 units/ml of glutathione peroxidase Se-GPx in 50 mM HEPES buffer, pH 7.3, containing 0.1 mM of DTPA.
30 μl of a 5 mM ethanolic mother-solution of the compound under test.
The glutathione oxidase activity is assayed at 37° C. by monitoring the decrease in the absorbance at 340 nm over 15 minutes. The said initial enzymatic rate or activity is proportional to the slope of the plot of absorbance against time.
The consumption of NADPH has been calculated from the slopes of the curves obtained (OD/minute): [formula]
Vt=total volume of the reaction =1850 μl
ε=molar extinction coefficient of NADPH=[…]. M^−1. cm^−1
They are expressed in nmoles of NADPH oxidized per minute.

Data set [2] has as its system MCF-7 cells from a breast cancer of human origin. The data set is described as follows: Cytotoxicity on MCF-7 cells (MTT viability test). Format: cell-based. Particulars: for mortality at 0.195 µM: MCF7, 0.195 μM; for mortality at 0.391 µM: MCF7, 0.391 μM; for mortality at 0.781 µM: MCF7, 0.781 μM; for mortality at 1.562 µM: MCF7, 1.562 μM; for mortality at 3.125 µM: MCF7, 3.125 μM; for mortality at 6.25 µM: MCF7, 6.25 μM; for mortality at 12.5 µM: MCF7, 12.5 μM; for mortality at 25 µM: MCF7, 25 μM; for mortality at 50 µM: MCF7, 50 μM. How it is done: The MCF-7 cells from a breast cancer of human origin are cultivated, in an atmosphere of a gaseous mixture of 95% air and 5% CO2, saturated with water, two days before the test, in order to be in a growth phase during the toxicity test. The cells are trypsinized and are collected in a RPMI 1640 medium containing 10% FCS, 10 mM HEPES, 1 mM pyruvate, 4 mM L-glutamine, 100 U/ml penicillin, 100 μg/ml streptomycin, in order to be centrifuged at 1,500 rpm for 10 minutes. The cell pellet is resuspended in the same medium in order to obtain a cell density of 30,000 cells/cm^2.
The compounds of general structure IA described in the present invention are solubilised at 10 mM in absolute ethanol and diluted in RPMI-10% FCS culture medium, the final volume of ethanol in the reaction medium is 0.5% (v/v). The molecules are studied at the following concentrations: 50; 25; 12.5; 6.25; 3.125; 1.562; 0.781; 0.391 and 0.195 μM. Two controls are carried out, in the presence and in the absence of ethanol respectively, using 100 μl of cell suspension of 30,000 cells/cm^2 incubated with 100 μl of RPMI-10% FCS medium and ±0.5% of ethanol (v/v).
Before starting the study, the cells are rinsed with PBS buffer which contains neither calcium nor magnesium. The cells are then incubated with 200 μl of compound under test, or with the medium containing or not 0.5% of ethanol (controls) for either 24 or 48 hours under an atmosphere of a gaseous mixture of 95% air and 5% CO2, saturated with water, at 37° C., then submitted to the viability test with MTT according to the following protocol.
To 200 μl of culture medium are added 50 μl of MTT at 5 mg/ml in PBS buffer. After 4 hours of incubation at 37° C., the plate is centrifuged for 10 minutes at 3,000 rpm. The supernatant is removed and the cell pellet is resuspended in 100 μl of DMSO. This is left to incubate for 10 minutes with stirring at 37° C. The coloration developed is measured at 550 nm against DMSO. The optical density OD=f(living cells) can then be plotted as a function of time.
Background: Formazan colour is commonly taken as a measure of viable cells.

For the compound `CC(=O)N1CC(C)(C)c2cccc([N+](=O)[O-])c2[Se]1`, the melting point came to 127 °C.

On to `CC1(C)CN[Se]c2c([N+](=O)[O-])cccc21`, for which the melting point stood at 108 °C.

In the case of `CC12CCC3c4ccc(O)cc4CC(CCCCCCCCN4[Se]c5c([N+](=O)[O-])cccc5C4(C)C)C3C1CCC2O` (stereo not shown), the melting point was 95 °C.

In turn, `CC12CCC3c4ccc(O)cc4CC(CCCCCCCC(=O)N4[Se]c5c([N+](=O)[O-])cccc5C4(C)C)C3C1CCC2O` (stereo not shown) came in with a melting point of 128 °C.

Turning to `CC1(C)N[Se]c2c([N+](=O)[O-])cccc21` [Bxt-51062, 3,3-Dimethyl-7-nitrobenzisoselenazoline], in data set [1] (compound + GSH + GR-NADPH + SOD and CAT), the “GSH oxidase activity, nmole NADPH oxidized/min” value amounted to 79.29 nmole NADPH oxidized/min. For the same compound, in data set [1] (compound + GSH + GR-NADPH + SOD), the “GSH oxidase activity, nmole NADPH oxidized/min” value came out at 78.78 nmole NADPH oxidized/min. The “GSH oxidase activity, nmole NADPH oxidized/min” value in data set [1] (compound + GSH + GR-NADPH + Se-GPx and SOD) worked out at 78.45 nmole NADPH oxidized/min. In addition, the “GSH oxidase activity, nmole NADPH oxidized/min” value in data set [1] (compound + GSH + GR-NADPH + Se-GPx) is listed as 80.61 nmole NADPH oxidized/min. The “GSH oxidase activity, nmole NADPH oxidized/min” value in data set [1] (compound + GSH + GR-NADPH ± IAA (iodoacetamide)) is reported as 76.25 nmole NADPH oxidized/min. The “GSH oxidase activity, nmole NADPH oxidized/min” value in data set [1] (compound + GSH + GR-NADPH, no further effector) is reported as 77.17 nmole NADPH oxidized/min. In data set [2] (24 h), the mortality at 0.195 µM came to 0%, the mortality at 0.391 µM was found to be 0%, the mortality at 0.781 µM was 23.6% and the mortality at 1.562 µM is 42.7%. In data set [2] (24 h), this compound yielded a mortality at 3.125 µM of 70.1%, a mortality at 6.25 µM of 100%, a mortality at 12.5 µM of 100% and a mortality at 25 µM of 100%. Besides, the mortality at 50 µM in data set [2] (24 h) was 100%. In data set [2] (48 h), this compound registered a mortality at 0.195 µM of 2.22%, a mortality at 0.391 µM of 0%, a mortality at 0.781 µM of 32.5% and a mortality at 1.562 µM of 58.5%. Moreover, in data set [2] (48 h), the mortality at 3.125 µM was determined as 83%, the mortality at 6.25 µM worked out at 100%, the mortality at 12.5 µM turned out to be 100% and the mortality at 25 µM worked out at 100%. In addition, in data set [2] (48 h), the mortality at 50 µM was 100%.

For `CC1(C)c2cccc([N+](=O)[O-])c2[Se]N1CCO` [Bxt-57001, N-(2-hydroxyethyl)-3,3-dimethyl-7-nitrobenzisoselenazoline], in data set [2] (24 h), the mortality at 0.195 µM was 0%, the mortality at 0.391 µM came out at 0%, the mortality at 0.781 µM turned out to be 16.9% and the mortality at 1.562 µM turned out to be 29.4%. In data set [2] (24 h), this compound returned a mortality at 3.125 µM of 23.9%, a mortality at 6.25 µM of 55%, a mortality at 12.5 µM of 75.3% and a mortality at 25 µM of 99.1%. For the same compound, the mortality at 50 µM in data set [2] (24 h) is 99.8%. For the same compound, in data set [2] (48 h), the mortality at 0.195 µM turned out to be 0%, the mortality at 0.391 µM stood at 0%, the mortality at 0.781 µM is 0% and the mortality at 1.562 µM was determined as 20%. Besides, in data set [2] (48 h), the mortality at 3.125 µM was 23.3%, the mortality at 6.25 µM was determined as 41.2%, the mortality at 12.5 µM came to 58.5% and the mortality at 25 µM is 99.8%. Moreover, the mortality at 50 µM in data set [2] (48 h) was 100%.

With `CC(=O)N1[Se]c2c([N+](=O)[O-])cccc2C1(C)C` [Bxt-57004, N-acetyl-3,3-dimethyl-7-nitrobenzisoselenazoline], in data set [2] (24 h), the mortality at 0.195 µM came out at 0%, the mortality at 0.391 µM was 3.19%, the mortality at 0.781 µM was determined as 34.9% and the mortality at 1.562 µM was found to be 59.4%. In data set [2] (24 h), this compound showed a mortality at 3.125 µM of 71.2%, a mortality at 6.25 µM of 73.3%, a mortality at 12.5 µM of 79.8% and a mortality at 25 µM of 92.8%. Moreover, the mortality at 50 µM in data set [2] (24 h) was 100%. In data set [2] (48 h), this compound gave a mortality at 0.195 µM of 17.4%, a mortality at 0.391 µM of 12.8%, a mortality at 0.781 µM of 38.6% and a mortality at 1.562 µM of 60.5%. For the same compound, in data set [2] (48 h), the mortality at 3.125 µM was found to be 69.1%, the mortality at 6.25 µM came to 76.4%, the mortality at 12.5 µM turned out to be 75.8% and the mortality at 25 µM is 88.4%. This compound yielded a mortality at 50 µM in data set [2] (48 h) of 100%.

In data set [2] (24 h), `CC/C(=C(\c1ccccc1)c1ccc(OCCN2[Se]c3c([N+](=O)[O-])cccc3C2(C)C)cc1)c1ccccc1` [Bxt-57007, N-{2-[4-(1,2-diphenylbut-1-en-1-yl)phenoxy]ethyl}3,3-dimethyl-7-nitrobenzisoselenazoline] yielded a mortality at 0.195 µM of 0%, a mortality at 0.391 µM of 1.02%, a mortality at 0.781 µM of 8.39% and a mortality at 1.562 µM of 12.9%. In data set [2] (24 h), this compound yielded a mortality at 3.125 µM of 13.3%, a mortality at 6.25 µM of 19.4%, a mortality at 12.5 µM of 28.6% and a mortality at 25 µM of 36.6%. In data set [2] (24 h), the mortality at 50 µM was found to be 40.8%. In data set [2] (48 h), the mortality at 0.195 µM was found to be 1.07%, the mortality at 0.391 µM is 8.42%, the mortality at 0.781 µM turned out to be 14.2% and the mortality at 1.562 µM stood at 25.1%. In data set [2] (48 h), this compound registered a mortality at 3.125 µM of 18.7%, a mortality at 6.25 µM of 33.2%, a mortality at 12.5 µM of 44.6% and a mortality at 25 µM of 46.8%. The mortality at 50 µM in data set [2] (48 h) stood at 46.3%.

As a reminder, the melting point is the temperature of the solid-liquid transition. The mortality is the share of the test organisms that died.
